# Measured values published in patent US20140329863A1 (priority 2011, published 2014).
# System: PrP^Sc in dividing ScN2a-cl3 cells
# Test: not given
# Type: cell-based, mouse
# Parameters: Dividing ELISA pEC50 (μM) 1st Expt. / Dividing ELISA pEC50 (μM) 2nd Expt. / Dividing ELISA pEC50 (μM) 3rd Expt. / Dividing ELISA pEC50 (μM) Mean: unit not given here
# Details: ScN2a-cl3 dividing cells; 1st determination
row,Compound,Dividing ELISA pEC50 (μM) 1st Expt.
1,"COc1ccc(-c2csc(Nc3cnccn3)n2)cc1OC [compound 11, [4-(3,4-dimethoxyphenyl)-thiazol-2-yl]pyrazin-2-yl-amine]",4.59
2,"COc1ccc(-c2csc(Nc3ncccc3C)n2)cc1OC [compound 15, [4-(3,4-dimethoxyphenyl)-thiazol-2-yl]-(3-methylpyridin-2-yl)-amine]",4.89
3,"COc1ccc(-c2csc(Nc3cc(C)ccn3)n2)cc1OC [compound 16, [4-(3,4-dimethoxyphenyl)-thiazol-2-yl]-(4-methylpyridin-2-yl)-amine]",5.95
4,"COc1ccc(-c2csc(Nc3ccc4ccccc4c3)n2)cc1OC [compound 19, [4-(3,4-dimethoxyphenyl)-thiazol-2-yl]-naphthalen-2-yl-amine]",6.36
5,"COc1ccc(-c2csc(Nc3cccc4ccccc34)n2)cc1OC [compound 20, [4-(3,4-dimethoxyphenyl)-thiazol-2-yl]-naphthalen-1-yl-amine]",>4.5

# Same assay, conditions: ScN2a-cl3 dividing cells; 2nd determination
row,Compound,Dividing ELISA pEC50 (μM) 2nd Expt.
1,"COc1ccc(-c2csc(Nc3cnccn3)n2)cc1OC [compound 11, [4-(3,4-dimethoxyphenyl)-thiazol-2-yl]pyrazin-2-yl-amine]",5.03
2,"COc1ccc(-c2csc(Nc3ncccc3C)n2)cc1OC [compound 15, [4-(3,4-dimethoxyphenyl)-thiazol-2-yl]-(3-methylpyridin-2-yl)-amine]",5.68
3,"COc1ccc(-c2csc(Nc3cc(C)ccn3)n2)cc1OC [compound 16, [4-(3,4-dimethoxyphenyl)-thiazol-2-yl]-(4-methylpyridin-2-yl)-amine]",6.13
4,"COc1ccc(-c2csc(Nc3ccc4ccccc4c3)n2)cc1OC [compound 19, [4-(3,4-dimethoxyphenyl)-thiazol-2-yl]-naphthalen-2-yl-amine]",6.50
5,"COc1ccc(-c2csc(Nc3cccc4ccccc34)n2)cc1OC [compound 20, [4-(3,4-dimethoxyphenyl)-thiazol-2-yl]-naphthalen-1-yl-amine]",>4.5

# Same assay, conditions: ScN2a-cl3 dividing cells; 3rd determination
row,Compound,Dividing ELISA pEC50 (μM) 3rd Expt.
1,"COc1ccc(-c2csc(Nc3cnccn3)n2)cc1OC [compound 11, [4-(3,4-dimethoxyphenyl)-thiazol-2-yl]pyrazin-2-yl-amine]",4.93
2,"COc1ccc(-c2csc(Nc3ncccc3C)n2)cc1OC [compound 15, [4-(3,4-dimethoxyphenyl)-thiazol-2-yl]-(3-methylpyridin-2-yl)-amine]",5.17
3,"COc1ccc(-c2csc(Nc3cc(C)ccn3)n2)cc1OC [compound 16, [4-(3,4-dimethoxyphenyl)-thiazol-2-yl]-(4-methylpyridin-2-yl)-amine]",5.95
4,"COc1ccc(-c2csc(Nc3ccc4ccccc4c3)n2)cc1OC [compound 19, [4-(3,4-dimethoxyphenyl)-thiazol-2-yl]-naphthalen-2-yl-amine]",6.38
5,"COc1ccc(-c2csc(Nc3cccc4ccccc34)n2)cc1OC [compound 20, [4-(3,4-dimethoxyphenyl)-thiazol-2-yl]-naphthalen-1-yl-amine]",>4.5

# Same assay, conditions: ScN2a-cl3 dividing cells; mean of three determinations
row,Compound,Dividing ELISA pEC50 (μM) Mean
1,"COc1ccc(-c2csc(Nc3cnccn3)n2)cc1OC [compound 11, [4-(3,4-dimethoxyphenyl)-thiazol-2-yl]pyrazin-2-yl-amine]",4.85
2,"COc1ccc(-c2csc(Nc3ncccc3C)n2)cc1OC [compound 15, [4-(3,4-dimethoxyphenyl)-thiazol-2-yl]-(3-methylpyridin-2-yl)-amine]",5.25
3,"COc1ccc(-c2csc(Nc3cc(C)ccn3)n2)cc1OC [compound 16, [4-(3,4-dimethoxyphenyl)-thiazol-2-yl]-(4-methylpyridin-2-yl)-amine]",6.01
4,"COc1ccc(-c2csc(Nc3ccc4ccccc4c3)n2)cc1OC [compound 19, [4-(3,4-dimethoxyphenyl)-thiazol-2-yl]-naphthalen-2-yl-amine]",6.41

# Same assay, conditions: read-out: Dividing ELISA EC50 (μM) 1st Expt.; ScN2a-cl3 dividing cells; 1st determination
row,Compound,EC50
1,"COc1ccc(-c2csc(Nc3cnccn3)n2)cc1OC [compound 11, [4-(3,4-dimethoxyphenyl)-thiazol-2-yl]pyrazin-2-yl-amine]",26 µM
2,"COc1ccc(-c2csc(Nc3ncccc3C)n2)cc1OC [compound 15, [4-(3,4-dimethoxyphenyl)-thiazol-2-yl]-(3-methylpyridin-2-yl)-amine]",13 µM
3,"COc1ccc(-c2csc(Nc3cc(C)ccn3)n2)cc1OC [compound 16, [4-(3,4-dimethoxyphenyl)-thiazol-2-yl]-(4-methylpyridin-2-yl)-amine]",1.13 µM
4,"COc1ccc(-c2csc(Nc3ccc4ccccc4c3)n2)cc1OC [compound 19, [4-(3,4-dimethoxyphenyl)-thiazol-2-yl]-naphthalen-2-yl-amine]",0.436 µM
5,"COc1ccc(-c2csc(Nc3cccc4ccccc34)n2)cc1OC [compound 20, [4-(3,4-dimethoxyphenyl)-thiazol-2-yl]-naphthalen-1-yl-amine]",> 32 µM

# Same assay, conditions: read-out: Dividing ELISA EC50 (μM) 2nd Expt.; ScN2a-cl3 dividing cells; 2nd determination
row,Compound,EC50
1,"COc1ccc(-c2csc(Nc3cnccn3)n2)cc1OC [compound 11, [4-(3,4-dimethoxyphenyl)-thiazol-2-yl]pyrazin-2-yl-amine]",9.23 µM
2,"COc1ccc(-c2csc(Nc3ncccc3C)n2)cc1OC [compound 15, [4-(3,4-dimethoxyphenyl)-thiazol-2-yl]-(3-methylpyridin-2-yl)-amine]",2.07 µM
3,"COc1ccc(-c2csc(Nc3cc(C)ccn3)n2)cc1OC [compound 16, [4-(3,4-dimethoxyphenyl)-thiazol-2-yl]-(4-methylpyridin-2-yl)-amine]",0.736 µM
4,"COc1ccc(-c2csc(Nc3ccc4ccccc4c3)n2)cc1OC [compound 19, [4-(3,4-dimethoxyphenyl)-thiazol-2-yl]-naphthalen-2-yl-amine]",0.317 µM
5,"COc1ccc(-c2csc(Nc3cccc4ccccc34)n2)cc1OC [compound 20, [4-(3,4-dimethoxyphenyl)-thiazol-2-yl]-naphthalen-1-yl-amine]",> 32 µM

# Same assay, conditions: read-out: Dividing ELISA EC50 (μM) 3rd Expt.; ScN2a-cl3 dividing cells; 3rd determination
row,Compound,EC50
1,"COc1ccc(-c2csc(Nc3cnccn3)n2)cc1OC [compound 11, [4-(3,4-dimethoxyphenyl)-thiazol-2-yl]pyrazin-2-yl-amine]",11.7 µM
2,"COc1ccc(-c2csc(Nc3ncccc3C)n2)cc1OC [compound 15, [4-(3,4-dimethoxyphenyl)-thiazol-2-yl]-(3-methylpyridin-2-yl)-amine]",6.81 µM
3,"COc1ccc(-c2csc(Nc3cc(C)ccn3)n2)cc1OC [compound 16, [4-(3,4-dimethoxyphenyl)-thiazol-2-yl]-(4-methylpyridin-2-yl)-amine]",1.13 µM
4,"COc1ccc(-c2csc(Nc3ccc4ccccc4c3)n2)cc1OC [compound 19, [4-(3,4-dimethoxyphenyl)-thiazol-2-yl]-naphthalen-2-yl-amine]",0.413 µM
5,"COc1ccc(-c2csc(Nc3cccc4ccccc34)n2)cc1OC [compound 20, [4-(3,4-dimethoxyphenyl)-thiazol-2-yl]-naphthalen-1-yl-amine]",> 32 µM

# Same assay, conditions: read-out: Dividing ELISA EC50 (μM) Mean; ScN2a-cl3 dividing cells; mean of three determinations
row,Compound,EC50
1,"COc1ccc(-c2csc(Nc3cnccn3)n2)cc1OC [compound 11, [4-(3,4-dimethoxyphenyl)-thiazol-2-yl]pyrazin-2-yl-amine]",15.6 µM
2,"COc1ccc(-c2csc(Nc3ncccc3C)n2)cc1OC [compound 15, [4-(3,4-dimethoxyphenyl)-thiazol-2-yl]-(3-methylpyridin-2-yl)-amine]",7.29 µM
3,"COc1ccc(-c2csc(Nc3cc(C)ccn3)n2)cc1OC [compound 16, [4-(3,4-dimethoxyphenyl)-thiazol-2-yl]-(4-methylpyridin-2-yl)-amine]",1 µM
4,"COc1ccc(-c2csc(Nc3ccc4ccccc4c3)n2)cc1OC [compound 19, [4-(3,4-dimethoxyphenyl)-thiazol-2-yl]-naphthalen-2-yl-amine]",0.389 µM
5,"COc1ccc(-c2csc(Nc3cccc4ccccc34)n2)cc1OC [compound 20, [4-(3,4-dimethoxyphenyl)-thiazol-2-yl]-naphthalen-1-yl-amine]",> 32 µM

# System: not given
# Test: not given
# Details: not given
row,Compound,melting point
1,"COc1ccc(-c2csc(Nc3cnccn3)n2)cc1OC [compound 11, [4-(3,4-dimethoxyphenyl)-thiazol-2-yl]pyrazin-2-yl-amine]",205 to 207 °C
2,"COc1ccc(-c2csc(Nc3ncccc3C)n2)cc1OC [compound 15, [4-(3,4-dimethoxyphenyl)-thiazol-2-yl]-(3-methylpyridin-2-yl)-amine]",264 to 266 °C
3,"COc1ccc(-c2csc(Nc3cc(C)ccn3)n2)cc1OC [compound 16, [4-(3,4-dimethoxyphenyl)-thiazol-2-yl]-(4-methylpyridin-2-yl)-amine]",211 to 213 °C
4,"COc1ccc(-c2csc(Nc3ccc4ccccc4c3)n2)cc1OC [compound 19, [4-(3,4-dimethoxyphenyl)-thiazol-2-yl]-naphthalen-2-yl-amine]",221 to 224 °C
5,"COc1ccc(-c2csc(Nc3cccc4ccccc34)n2)cc1OC [compound 20, [4-(3,4-dimethoxyphenyl)-thiazol-2-yl]-naphthalen-1-yl-amine]",244 to 246 °C

# System: N2a-cl3 cells
# Test: cells
# Details: Mus musculus, N2a-cl3, read-out: Dividing Calcein EC50 (μM) Mean (n = 3)
row,Compound,EC50
1,"COc1ccc(-c2csc(Nc3cnccn3)n2)cc1OC [compound 11, [4-(3,4-dimethoxyphenyl)-thiazol-2-yl]pyrazin-2-yl-amine]",> 32 µM
2,"COc1ccc(-c2csc(Nc3ncccc3C)n2)cc1OC [compound 15, [4-(3,4-dimethoxyphenyl)-thiazol-2-yl]-(3-methylpyridin-2-yl)-amine]",> 32 µM
3,"COc1ccc(-c2csc(Nc3cc(C)ccn3)n2)cc1OC [compound 16, [4-(3,4-dimethoxyphenyl)-thiazol-2-yl]-(4-methylpyridin-2-yl)-amine]",> 32 µM
4,"COc1ccc(-c2csc(Nc3ccc4ccccc4c3)n2)cc1OC [compound 19, [4-(3,4-dimethoxyphenyl)-thiazol-2-yl]-naphthalen-2-yl-amine]",> 32 µM
5,"COc1ccc(-c2csc(Nc3cccc4ccccc34)n2)cc1OC [compound 20, [4-(3,4-dimethoxyphenyl)-thiazol-2-yl]-naphthalen-1-yl-amine]",> 32 µM

# System: PrP^Sc in nondividing ScN2a-cl3 cells
# Test: not given
# Type: cell-based, mouse
# Details: read-out: Non-Dividing ELISA EC50 (μM) Mean (n = 3); ScN2a-c13 non-dividing cells; mean n = 3
row,Compound,EC50
1,"COc1ccc(-c2csc(Nc3cnccn3)n2)cc1OC [compound 11, [4-(3,4-dimethoxyphenyl)-thiazol-2-yl]pyrazin-2-yl-amine]",> 32 µM
2,"COc1ccc(-c2csc(Nc3ncccc3C)n2)cc1OC [compound 15, [4-(3,4-dimethoxyphenyl)-thiazol-2-yl]-(3-methylpyridin-2-yl)-amine]",> 32 µM
3,"COc1ccc(-c2csc(Nc3cc(C)ccn3)n2)cc1OC [compound 16, [4-(3,4-dimethoxyphenyl)-thiazol-2-yl]-(4-methylpyridin-2-yl)-amine]",> 32 µM
4,"COc1ccc(-c2csc(Nc3ccc4ccccc4c3)n2)cc1OC [compound 19, [4-(3,4-dimethoxyphenyl)-thiazol-2-yl]-naphthalen-2-yl-amine]",> 32 µM
5,"COc1ccc(-c2csc(Nc3cccc4ccccc34)n2)cc1OC [compound 20, [4-(3,4-dimethoxyphenyl)-thiazol-2-yl]-naphthalen-1-yl-amine]",> 32 µM
